How the values were obtained:
[1] = during tablet manufacture and storage
[2] = across the physiological pH range; cited from earlier work
dopamine receptors = conditions: compared to pramipexole; cited from earlier work
[3] = test system: eosinophil counts in human blood and tissues; conditions: cited from earlier work

chiral purity over time [1]	SMILES	solubility [2]	affinity for dopamine receptors (dopamine receptors)	effect on eosinophil counts [3]
did not change over time	CCCN[C@@H]1CCc2nc(N)sc2C1	freely soluble		
	CCCN[C@@H]1CCc2nc(N)sc2C1 [dexpramipexole, (6R)-2-amino-4,5,6,7-tetrahydro-6-(propylamino)benzothiazole]		greatly reduced when compared to pramipexole	selectively and significantly lower eosinophil counts
